Measurements published in PubChem BioAssay AID1117319 (Southern Research Institute, 2015).
Inconclusive results are not listed.

molecular target: Virion infectivity factor (Human immunodeficiency virus type 1 group M subtype B (isolate BH10)) + Virion infectivity factor (Human immunodeficiency virus type 1 group M subtype B (isolate BRU/LAI)) + Virion infectivity factor (Human immunodeficiency virus type 1 group M subtype B (isolate PCV12)) + Virion infectivity factor (Human immunodeficiency virus type 1 group M subtype B (isolate HXB2)) + DNA dC->dU-editing enzyme APOBEC-3G (Homo sapiens) (UniProt P69720+P69721+P69722+P69723+Q9HC16); experiment: inhibitors of Vif binding to APOBEC3G peptide, primary screen, biochemical, TR-FRET, GST-Vif 1-94, biotin-A3G peptide, dose response retest (AID 1117319);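 note: Vif residues 1-94 fused to GST binding biotinylated APOBEC3G peptide 110-148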

Row | Structure (SMILES) | IC50 [µM]
1 | COc1ccc(/C=N\NC(=O)c2cc(O)c(O)c(O)c2)cc1CN1CCN(c2ccc(F)cc2)CC1 | < 2.47
2 | O=[N+]([O-])c1cc(CN2CCN(c3cccc(C(F)(F)F)c3)CC2)c2cccnc2c1O | 8.68
3 | CC1=C(C(=O)Nc2ccccc2F)C(c2ccsc2)C2=C(CC(c3ccccc3)CC2=O)N1 (stereo not given) | 1.02
4 | COc1ccccc1N1C(=O)NC(=O)/C(=C/c2ccc([N+](=O)[O-])s2)C1=O | 6.9
5 | CCOC(=O)C1CCN(C(=O)COc2ccc(S(=O)(=O)NC(C)C)cc2)CC1 | 27.8
6 | O/C=c1\ccc2cccc3nc(C(F)(F)F)nc1c23 | 2.79
7 | Cc1cc(C)c(C(=O)/C=C/c2ccco2)c(=O)[nH]1 | 8.81
8 | CC(=O)c1ccc(NC(=O)CSc2nnc(-c3ccco3)c(-c3ccco3)n2)cc1 | 3.91
9 | Cc1ccccc1NC(=O)c1c(C)[nH]c(=S)c(C#N)c1-c1ccco1 | 18.7
10 | Cc1c(NC(=O)CN2CCN(c3ccc(O)cc3)CC2)c(=O)n(-c2ccccc2)n1C | 10.2
11 | O=C(NNC(=O)c1ccccc1F)c1cccc(-n2cccc2)c1 | 8.55
12 | O=C(c1ccc2nc(-c3ccco3)c(-c3ccco3)nc2c1)N1CCN(c2ncccn2)CC1 | 1.03
13 | CN1CCN(S(=O)(=O)c2ccc(NC(=S)NC(=O)c3ccc(Cl)cc3)cc2)CC1 | 80.7
14 | Oc1ccc(-c2cn3c(n2)SCC3)cc1O | 1.11
15 | CCC(C)(C)n1nnnc1C(c1ccc2ncccc2c1)N1CCN(c2ccc(O)cc2)CC1 (stereo not given) | 4.65
16 | COc1ccc(O)c(N)c1 | 0.93
17 | O=C1Cc2cccc(=O)c(O)c2C(=O)O1 | 14
18 | FC(F)(F)c1cc(-c2ccco2)nc(NCc2ccco2)n1 | 4.24
19 | O=C(OCC(=O)N1CCN(C(=O)c2ccco2)CC1)c1cc(-c2ccco2)nc2ccccc12 | 3.95
20 | Cc1ccc(C)n1-c1ccc(-c2nnc3n2CCCCC3)s1 | 8.58
21 | CN(C(=S)Nc1cccnc1)c1ccc(O)cc1 | 1.85
22 | N#C/C(=C/c1ccc(Br)o1)C(N)=S | 3.87

Row | Structure (SMILES) | IC50 [µM]
23 | CN1CCc2cccc3c2[C@H]1Cc1ccc(O)c(O)c1-3 | 0.89
24 | O=S(=O)(O)c1cccc2c(N=Nc3ccc(O)c4ncccc34)cccc12 | 13.6
25 | CCN(C(=O)c1coc(=O)c(Br)c1)c1ccc2c(c1)OCO2 | 1.06
26 | COc1ccc(OCCOC(=O)c2cccc(-n3cnnn3)c2)cc1 | 93.6
27 | O=C(O)C(Cc1ccccc1)N1C(=O)/C(=C/C=C/c2ccco2)SC1=S (stereo not given) | 2.11
28 | CC(C)NC(=O)c1cc(-c2ccco2)nn1-c1ccc(Cl)cc1 | 13.5
29 | COC(=O)C1C(O)C(C)C(O)C(C)(O)/C=C\C=C(/C)C(=O)Nc2c(C)c(OC(C)=O)c3c(c2O)C(=O)C(C)=C2OCOC(=C23)/C(C)=C/C(C)(O)C(O)C(C)C1O (stereo not given) | 13.6
30 | O=S(=O)(O)c1cc(O)c2cc(Nc3ccccc3)ccc2c1 | 2.3
31 | O=C(CCN1CCN(c2ccccc2)CC1)N/N=C/c1ccc(O)c(O)c1O | 1.02
32 | CCOc1ccc(NCC2CCOC(C)(C)C2)cc1 (stereo not given) | 9.47
33 | O=C(Nc1ccccc1-c1nnn(CC(=O)N2CCc3ccccc3C2)n1)C1CCC1 | 91
34 | CCOC(=O)N1CC=C2C(C#N)=C(N)C(C#N)(C#N)[C@H](c3cccs3)[C@H]2C1 | 4.68
35 | Cn1cccc1C(=O)NC(=O)COC(=O)CC12CC3CC(CC(Br)(C3)C1)C2 | 58.5
36 | O=C(O)C[C@@H]1C(=O)O[C@@H]2C(COC(=O)c3cc(O)c(O)c(O)c3)O[C@@H](OC(=O)c3cc(O)c(O)c(O)c3)[C@@H](OC(=O)c3cc(O)c(O)c4c3[C@H]1[C@H](O)C(=O)O4)[C@H]2OC(=O)c1cc(O)c(O)c(O)c1 (stereo not given in full) | < 0.195
37 | O=C1OC(c2ccc3ccccc3c2O)(c2ccc3ccccc3c2O)c2ccccc21 | 9.39
38 | Cc1ccc(/C=C/C(=O)Nc2cccc(S(=O)(=O)N3CCOCC3)c2)o1 | 20.9
39 | Cc1ccc2c(c1)c(=O)c1c3n2CCN(C(=O)CCl)C3CC1 (stereo not given) | 10.8
40 | Cc1cc(-c2cc(-c3ccc(Cl)cc3)nc(N)c2C#N)co1 | 12.4
41 | CC1=C(C#N)C(=O)N(C2CCS(=O)(=O)C2)C(=O)/C1=C\c1ccc(C)o1 (stereo not given) | 1.42
42 | COc1ccc(/C=N/NC(=O)c2cc(O)c(O)c(O)c2)cc1Cn1cc([N+](=O)[O-])cn1 | 1.07
43 | O=C(COc1ccc(S(=O)(=O)N2CCCC2)cc1)NCCC1=CCCCC1 | 75.1
44 | CN(C)C(CNC(=O)c1cccnc1Sc1ccccc1)c1ccco1 (stereo not given) | 64

Row | Structure (SMILES) | IC50 [µM]
45 | O=C1/C(=C\c2ccco2)SC(=S)N1c1ccccc1 | 2.58
46 | Cc1cc(C)nc(N/N=C/C2=C(N3CCOCC3)C(=C\c3ccc(Cl)cc3)/CC2)n1 | 13.3
47 | CCc1cccc(NC(=O)CCS(=O)(=O)c2ccc(Br)cc2)c1 | 14.7
48 | Cc1cc2ccccc2n1CCNC(=O)C1CCCCC1 | 37.2
49 | O=C(NC1=CC(=O)c2ccccc2C1=O)c1ccccc1 | 20.7
50 | CC(=C\c1ccco1)/C=C1/SC(=S)N(CC(=O)O)C1=O | 14.7
51 | CN(C)c1ccc(C=c2c3cc([N+](=O)[O-])ccc3n3c2cc(-c2ccccc2)[n+]3C)cc1 | 3.58
52 | CC(C)c1ccc(N2C(=O)NC(=O)/C(=C\C=C\c3ccco3)C2=O)cc1 | 9.35
53 | CCOC(=O)C1=C(O)/C(=C\c2ccc(CNC(=O)C(=O)Nc3ccccc3)o2)N=C1C | 1.86
54 | COc1cccc(-n2c(/C=C/c3ccc(O)c(O)c3)nc3ccccc3c2=O)c1 | 10.7
55 | COC(=O)c1ccccc1NC(=O)c1noc2c1CCC2 | 26
56 | Cc1occc1-c1nnc(SCC(=O)N2CCN(c3ccccc3)CC2)n1C | 56.8
57 | c1cnc(N2CCN(c3cnccn3)CC2)nc1 | 14.3
58 | Oc1ccc(N=Cc2sc3ccccc3c2Cl)cc1 | 3.11
59 | C[n+]1cccc2cccc([O-])c21 | 1.4
60 | Cc1cc(C(=O)CSc2nnc(-c3ccco3)o2)c(C)n1Cc1ccco1 | 1.97
61 | O=C(O)CCCNc1cc(N2CCC3(CC2)OCCO3)c2noc3c2c1C(=O)c1ccccc1-3 | 0.97
62 | CN(C)c1ccc(N2C(=O)CC(Nc3ccc(N4CCOCC4)cc3)C2=O)cc1 (stereo not given) | 1.23
63 | COc1cccc2c1NC(C(=O)O)C1CC=CC21 (stereo not given) | < 0.398
64 | O=C(c1ccc2nc(-c3ccco3)c(-c3ccco3)nc2c1)N1CCC2(CC1)OCCO2 | 0.35
65 | C=C(C)C(=O)Nc1cccc(C2=NOC3(C2)C[C@H](C(N)=O)N(C(=O)C(c2ccccc2)c2ccccc2)C3)c1 (stereo not given in full) | 2.41
66 | Cc1cc(-c2csc(NC(=O)c3cc4ccccc4o3)n2)c(C)n1C | 48.7

Row | Structure (SMILES) | IC50 [µM]
67 | COc1ccc(C2CC(=O)Nc3cc(C)c(C)cc32)c(OC)c1OC (stereo not given) | 63.5
68 | Oc1ccc(NCc2cccc(OCc3ccc(F)cc3)c2)cc1 | 2.37
69 | Cc1nn(-c2ccccn2)c2c1C(=O)C(Br)CC2 (stereo not given) | 3.41
70 | CS(=O)(=O)c1ccc(C(=O)Nc2nc(-c3ccco3)c(-c3ccco3)s2)cc1 | 22.1
71 | Cc1cccc(C)c1NC(=O)COC(=O)c1cc(-c2cccnc2)nc2ccccc12 | 41.4
72 | COc1c(OC(C)=O)ccc(/C=C/c2ccc3ccccc3n2)c1[N+](=O)[O-] | 97.2
73 | CN(C)c1ccc(N=C/C=C2/N(C)c3ccccc3C2(C)C)cc1 | 2.19
74 | Nc1nc(-c2ccco2)c(-c2ccco2)s1 | 0.83
75 | O=C1CC(SC(=S)C2CCCC2=O)C(=O)N1 (stereo not given) | 27.8
76 | CC1=C(O)C(=O)C=C2C1=CC=C1C2(C)CCC2(C)C3CC(C)(C(=O)O)CCC3(C)CCC12C (stereo not given) | 12.2
77 | O=C(NCCS(=O)CCNC(=O)C(F)(F)F)C(F)(F)F | 95
78 | O=C(O)Cc1ccc(N=Nc2c(O)c(C(=O)O)cc3ccccc23)cc1 | 10.5
79 | COc1ccc2[nH]c3c4c(ccc3c2c1)C(=O)C=CC4=O | 1.42
80 | O=C(N/N=C/c1cn(Cc2cccc(F)c2)c2ccccc12)c1cc(O)cc(O)c1 | 3.48
81 | Nc1cc(C(=O)O)ccc1N1CCCCC1 | 15
82 | O=C(N/N=C/C=C/c1ccco1)c1ccncc1 | 2.36
83 | O/N=C1\CCC\C1=C/c1ccco1 | 7.57
84 | CCCC(=O)N(CCc1ccc(OC)cc1)Cc1nc2ccccc2c(=O)[nH]1 | 14.4
85 | CCN(CC)c1ccc(N=Cc2ccc(N(CC)CC)cc2O)cc1 | 50.7
86 | O=C(CN1C(=O)NC2(CCCCCCC2)C1=O)NCc1cccs1 | 11.1
87 | CCOC(=O)N1CCN(c2ccc(O)cc2)CC1 | 16.8
88 | CC(C)C1Nc2ccc(C(=O)O)cc2C2C=CCC21 (stereo not given) | 8.06

Row | Structure (SMILES) | IC50 [µM]
89 | CCCCOc1ccccc1C1NC(=O)NC(C)=C1C(=O)OCc1ccco1 (stereo not given) | 57.3
90 | Cc1nn(Cc2ccccc2)c(C)c1C(=O)OCC(=O)c1cc(C)n(C2CC2)c1C | 80.5
91 | O=C(Nc1ccccc1)C1=C(O)CC(c2ccco2)CC1=Nc1ccccc1 (stereo not given) | 15.1
92 | O=C(NC1CCCC1)c1ccc2nc(-c3ccco3)c(-c3ccco3)nc2c1 | 0.3
93 | CC1CCC/C(=C\Nc2ccc(C(=O)O)c(O)c2)C1=O (stereo not given) | 17.1
94 | CCC(Cc1ccccc1)NC(=O)C1CCN(S(=O)(=O)c2c(C)noc2C)CC1 (stereo not given) | 91
95 | CC(=C/c1ccco1)/C=N/NC(=O)Cc1cccn1C | 1.91
96 | CNc1ccccc(-c2ccc3cc4c(cc3n2)OCO4)c1=O | 16.5
97 | O=c1cc2c(=O)oc3cc(O)c(O)oc3c2c(O)c1O | 1.68
98 | CN1CCN(c2ccc(N)cc2)CC1 | 15.6
99 | O=C1NC(=S)NC1=Cc1ccco1 | 11.3
100 | CCc1ccc(NC(=O)N(CCN2CCOCC2)Cc2ccc3c(c2)CCCN3CC)cc1 | 88.1
101 | CCOC(=O)C1CCCC12Nc1cccc3cccc(c13)N2 (stereo not given) | 3.74
102 | Cc1cccc(NC(=O)CNC(=O)c2cccc(-n3cccc3)c2)c1C | 12.2
103 | N#Cc1ccc(N2CCN(C(=O)c3cccc(F)c3)CC2)c(F)c1 | 91
104 | CN=c1scc(C)n1/N=C/c1ccc(O)c(O)c1O | < 1.84
105 | COc1cc(C(=O)NCc2nnc(SCC(=O)Nc3nc4ccc(C)cc4s3)o2)cc(OC)c1OC | 45.3
106 | c1ccc(CSc2nnc(-c3ccco3)c(-c3ccco3)n2)cc1 | 6.93
107 | NC1=NC(=O)/C(=C\c2ccco2)S1 | 3.07
108 | O=C1CCCC/C1=C/Nc1ccc2c(c1)OCO2 | 5.94
109 | CCc1ccccc1N(CC(=O)NCCSCc1ccco1)S(C)(=O)=O | 78.4
110 | O=C(O)CC(Cn1cnnn1)c1ccccc1 (stereo not given) | 58.8
